Assay results taken from EP0831811B1, “CARBAZOLES FOR TREATING MICROBIAL INFECTIONS” (priority 1995, dated 1996).
Counter-ions that a name gives are not always drawn.

How the values were obtained:
[1] = system: Pneumocystis carinii; assay: Rat model of P. carinii pneumonia (PCP): cysts per gram of lung; format: in vivo; details: for response vs control in vivo at 5 mg/kg: immunosuppressed rats, dose 5.0 mg/kg iv once daily for 14 days, means ± SEM, percent of saline-treated controls; for anti-P. carinii activity (in words): rat model, carbazoles tested at one half the dose of pentamidine
Protocol: (§1) The activity of the compounds against P. carinii was carried out according to an established method. See Tidwell, R. R., et al., J. Med. Chem. 33, 1252-1257 (1990); Jones, S. K., et al., Antimicrob. Agents Chemother. 34, 1026-1030 (1990); Tidwell, R.R., et al., Antimicrob. Agents Chemother. 37, 1713-1716 (1993). The induction and treatment of P. carinii pneumonia (PCP) was carried out with only minor alterations to published methods. See Frenkel, J.K. et al., Lab. Invest. 15, 1559 (1966); Hughes, W.T. et al., Antimicrob. Agents Chemother. 5, 289 (1974). Briefly, male Sprague-Dawley rats (barrier raised, not certified virus-free) weighing 150-200g each, were obtained (Hilltop Laboratories, Scottsdale, PA). Immediately upon arrival, the animals were caged individually and begun on a low protein (8%) diet and on drinking water containing tetracycline (0.5 mg/mL) and dexamethasone ([…]). This regimen was continued for eight weeks. At the beginning of the seventh week, animals were divided into groups of 8 or more, and the test compounds were administered for 14 days by single daily IV injection. Generally, the daily dose was 5 mg/kg of body weight and was dissolved in 0.4 mL of saline. Saline- and pentamidine-treated groups were included as controls.
Animals were sacrificed at the end of the eighth week by chloroform inhalation. The right lung was inflated in situ with 10% formalin and fixed for histological examination. The lung tissue was sectioned in the long axis and exposed to the GMS stain, which selectively identified the walls of the P. carinii cysts.
The left lung was weighed, ground through a No. 60 wire mesh screen, and suspended 1:10 (wt/vol) in 10 mM β-mercaptoethanol-Hanks' balanced salts solution (HBSS) without cations. Slides were prepared by spotting 5 µL of lung homogenate diluted 1:10 in HBSS with β-mercaptoethanol and allowed to air dry. The slides were stained with cresyl violet, and the cysts were counted by a blinded protocol. The number of cysts per gram of original lung tissue was calculated, and the groups were reported as the percentages of saline-treated controls.
Anti-P. carinii activity is measured by the reduction in the number of cysts per gram of lung tissue for treated animals as compared to untreated controls. The anti-P. carinii value for each compound is expressed as the percent of cysts in the treatment group as compared to the control group. […] It should be noted that compound 3 was tested at one half the dose of pentamidine as were all of the carbazoles.

[2] = Toxicity seen in the rat PCP treatment study; set-up: species or system Sprague-Dawley rats; details: in vivo, iv, 5 mg/kg
Protocol: as §1

[3] = system: Calf thymus DNA; assay: DNA binding by thermal melting (ΔTm); details: for DNA binding calf thymus ΔTm(°C): absorbance at 259 nm, heated at 18°C/h, average of at least two determinations
Protocol: DNA binding potency was determined for each of the compounds because previous work had determined that the binding of dicationic molecules to DNA is a prerequisite for their antimicrobial activity. See e.g., Tidwell, R.R., et al., Antimicrob. Agents Chemother. 37, 1713-1716 (1993); Bell, C. A., et al., Antimicrob. Agents Chemother. 35, 1099-1107 (1991). The DNA binding of the compounds was determined by the change in melting of the DNA bound to the experimental compounds. The method is well documented and is a considered a standard method for determining DNA binding strength. See Cory, M.. et al., J. Med. Chem. 25, 431-438 (1992). In brief, a UV-visible light spectrophotometer with a cuvette changer was interfaced to a microcomputer that recorded the cuvette temperature and DNA-absorbance data at 259 nm as the sample was heated at a rate of 18°C/h. Calf thymus DNA was used at an initial absorbance of 0.3A259. The midpoint of each denaturation curve was determined after graphic selection on the computer of the starting and ending absorbance temperature for each curve of each experiment. DNA or DNA bound to experimental compound was run in each experiment and the ΔTms were determined from the polynucleotide Tm for that experiment. […] The data reported in Table 1 represent the average of at least two determinations of ΔTm.

[4] = system: Cryptosporidium parvum; assay: Neonatal mouse model of Cryptosporidium parvum infection: oocysts in the bowel; format: in vivo; details: for Efficacy: C. parvum
Protocol: Besides the potency shown by this compound against P. carinii infection in the rat model, the compound was also effective in a neonatal mouse model of Cryptosporidium parvum infection. This model has been described in detail in previous reports. See Blagburn, B. L.; et al., Antimicrob. Agents Chemother. 35, 1520-1523 (1991). The compound's activity against C. parvum is measured by a reduction in the number of oocysts detected in the bowel of treated mice compared to untreated controls.

[5] = system: C. albicans; assay: Broth dilution antifungal susceptibility test (NCCLS M27-P), MIC and MFC; format: cell-based
Protocol: (§2) Activity of the compound was assessed using a standard in vitro fungal cell growth inhibition assay (the broth dilution antifungal susceptibility testing of yeast, proposed standard document M27-P, validated by the National Committee for Clinical Laboratory Standards, 1992). Briefly, this broth dilution procedure uses PMI media, and an inoculum of […] with media alone. After the minimal inhibitor concentration was determined by the above procedure, tubes with no visible growth were subcultured to determine the minimum fungicidal concentration by using criteria of less than 0.01% survival of original inoculum. Two organisms were tested: (1) H99, a clinical isolate of C. neoformans which is fully susceptible to azoles and polyenes in vitro and in vivo; and (2) A39, a clinical isolate of C. albicans which is fully susceptible to azoles and polyenes.
(§3) The MFC's (minimum fungicidal concentration) for compound 9 against these two important AIDS-associated fungal infections are shown in Table 2.

[6] = system: Cryptococcus neoformans; assay: as above; format: cell-based
Protocol: as §2, §3

[7] = Pneumocystis carinii, 336 h, read-out: in vivo activity against PCP cysts/g lung % control
[8] = in vitro fungal cell growth inhibition

Row | SMILES | response vs control in vivo at 5 mg/kg [1, 7] | toxicity [2] | DNA binding calf thymus ΔTm(°C) [3] | also measured
1 | Cn1c2ccc(C3=NCCN3)cc2c2cc(C3=NCCN3)ccc21 [Compound 4, 3,6-bis(2-imidazolinyl)-9-methylcarbazole dihydrochloride] | 0.17 ± 0.11% |  |  | 
2 | c1cc2[nH]c(-c3ccc4[nH]c5ccc(-c6nc7cc(C8=NCCN8)ccc7[nH]6)cc5c4c3)nc2cc1C1=NCCN1 [Compound 8, 3,6-bis[2-imidazolinyl)-2-benzimidazoyl]carbazole tetrahydrochloride] | 61.9 ± 14.5% | 0 | 22.2 °C | anti-P. carinii activity (in words) [1]: failed to exhibit anti-P. carinii significantly more potent than the control drug, pentamidine; anti-P. carinii activity (in words) ([1]; listed as compound 8): only moderate activity; DNA binding (in words) [3]: highly potent as a DNA binding agent
3 | c1cc2c(cc1C1=NCCN1)c1cc(C3=NCCN3)ccc1n2CC1CCCCC1 [Compound 5, 9-cyclohexylmethyl-3,6-bis(2-imidazolinyl)carbazole dihydrochloride] | 35.8 ± 4.87% | 0 |  | 
4 | Cl.Cl.N=C(N)c1ccc2c(c1)[nH]c1cc(C(=N)N)ccc12 [Compound 9, 2,7-diamidinocarbazole dihydrochloride] | 0.17 ± 0.06% | 0 | 19.0 °C | activity against C. parvum (in words) [4]: effective; Efficacy ([4]; 14.6 µmol/kg oral): 6.1 % control; Efficacy ([4]; 29.3 µmol/kg oral): 0.30% control; Efficacy ([4]; 58.6 µmol/kg oral): 0.89 % control; MIC ([5]; Candida albicans, in vitro, A39 clinical isolate of C. albicans): 0.78 µg/mL; MFC ([5]; Candida albicans, in vitro, A39 clinical isolate of C. albicans, less than 0.01% survival of original inoculum): 1.56 µg/mL; activity in vitro (in words) [5, 8]: highly active; MIC ([6]; Cryptococcus neoformans, in vitro, H99 clinical isolate of C. neoformans): 6.25 µg/mL; MFC ([6]; Cryptococcus neoformans, in vitro, H99 clinical isolate of C. neoformans, less than 0.01% survival of original inoculum): 50 µg/mL; activity in vitro (in words) [6, 8]: highly active
5 | CC(C)N=C(N)c1ccc2[nH]c3ccc(C(N)=NC(C)C)cc3c2c1 [Compound 2, 3,6-diisopropylamidinocarbazole dihydrochloride] | 0.11 ± 0.08% | 0 |  | 
6 | c1cc2c(cc1C1=NCCN1)[nH]c1cc(C3=NCCN3)ccc12 [Compound 10, 2,7-bis(2-imidazolinyl)carbazole dihydrochloride] | 0.5 ± 0.33% | 0 |  | 
7 | Cl.Cl.N=C(N)c1ccc2[nH]c3ccc(C(=N)N)cc3c2c1 [Compound 1, 3,6-diamidinocarbazole dihydrochloride] | 0.8 ± 0.36% | 0 | 17.2 °C | 
8 | c1cc2c(cc1C1=NCCCN1)c1cc(C3=NCCCN3)ccc1n2CC1CCCCC1 [Compound 7, 3,6-bis[2-(1,4,5,6-tetrahydropyrimidinyl)]-9-cyclohexylmethylcarbazole dihydrochloride] | 4.1 ± 1.59% |  | 7.3 °C | anti-P. carinii activity (in words) [1]: failed to exhibit anti-P. carinii significantly more potent than the control drug, pentamidine
9 | N=C(N)c1ccc(OCCCCCOc2ccc(C(=N)N)cc2)cc1 [pentamidine, reference compound] |  |  | 10.7 °C | response vs control in vivo at 10 mg/kg ([1]; Pneumocystis carinii, iv, 336 h, read-out: in vivo activity against PCP cysts/g lung % control): 1.84 ± 0.82%
10 | Cn1c2ccc(C3=NCCCN3)cc2c2cc(C3=NCCCN3)ccc21 [Compound 6, 3,6-bis[2-(1,4,5,6-tetrahydropyrimidinyl)]-9-methylcarbazole dihydrochloride] | 0.14 ± 0.05% |  | 13.6 °C | 
11 | c1cc2[nH]c3ccc(C4=NCCN4)cc3c2cc1C1=NCCN1 [Compound 3, 3,6-bis(2-imidazolinyl)carbazole dihydrochloride] | 0.06 ± 0.02% | 0 |  | 
